Literature values in patent publication US12527767B2 (priority 2019, dated 2026).

System: corneal neovascularization
Settings: rabbit, in vivo

For O=C1O[C@H]([C@@H](O)CO)C(O)=C1O [ascorbic acid], the corneal neovascularization is given as “attenuated corneal neovascularization”.
